Percent inhibition data for one compound are collected here from patent EP0741749B1, “MERCURY BINDING POLYPEPTIDES AND N[…] THEREFOR” (priority 1994, dated 1995).

For this assay, the system named is binding of antibody secreted by hybridoma designated as 1F10 to immobilized glutathione-mercuric ion. Put plainly: Competitive inhibition ELISA: inhibition of antibody binding by metal ions. As to conditions: culture fluid of 1F10; at the highest concentration (final range 10^-1 M to 10^-6 M); 100000 µM. The protocol: Various methods were used to confirm that the antibodies secreted by hybridomas 4A10 and 1F10 were specific to mercuric ions. If the antibody being secreted by these hybridomas were specific, it should be possible to inhibit binding of the antibody to glutathione-mercuric ions by incubation in the presence of various concentrations of mercuric chloride. This competitive inhibition assay was conducted with antibody-containing culture fluids from the parental hybridomas 4A10 and 1F10.
Metal ions at the indicated concentrations were incubated with culture fluid from the monoclonal antibody in an enzyme-linked immunosorbent assay ("ELISA") plate. The absorbance at 405 nm was determined for each sample, and the percent inhibition of each metal ion concentration was determined by the following formula: Percent inhibition=(A405 of inhibitor - A405 of neg. control)/(A405 of pos. control - A405 of neg. control) [formula]
Various other metals were assayed for inhibition of binding of the monoclonal antibodies to mercuric ion. […] The absorbance at 405 nm was determined for each sample, and the percent inhibition of each metal ion concentration was determined by the same formula used for Figure 1. […]
The negative control measured the binding of a dinitrophenol specific antibody to the antigen mentioned above in the presence of the corresponding metal ions. […]

SMILES strings stand for the structures.

For `[Cl-].[Cl-].[Mg+2]` [magnesium chloride], the Percent inhibition is ~50%.
